Measured values from US20170216252A1, “ANTI-BACTERIAL PYRUVATE KINASE MODULATOR COMPOUNDS, COMPOSITIONS, USES AND METHODS” (SIMON FRASER UNIVERSITY, priority 2014, published 2017).
Values after ≈ are worked out from the molar mass of the structure shown. Where two headings read alike, the source gives them in different places.

Columns and labels:
[1] = target: T1, Human R PK (Homo sapiens, UniProt P30613); test: Human PK selectivity, LDH-coupled enzyme assay; assay type: biochemical; details: read-out: % Inhibition Human R
T1 construct: His tag; made in house; host or cells: E. coli BL-21 (DE3); construct a gift of Dr. L. Cantley
T1 sequence (P30613 whole entry): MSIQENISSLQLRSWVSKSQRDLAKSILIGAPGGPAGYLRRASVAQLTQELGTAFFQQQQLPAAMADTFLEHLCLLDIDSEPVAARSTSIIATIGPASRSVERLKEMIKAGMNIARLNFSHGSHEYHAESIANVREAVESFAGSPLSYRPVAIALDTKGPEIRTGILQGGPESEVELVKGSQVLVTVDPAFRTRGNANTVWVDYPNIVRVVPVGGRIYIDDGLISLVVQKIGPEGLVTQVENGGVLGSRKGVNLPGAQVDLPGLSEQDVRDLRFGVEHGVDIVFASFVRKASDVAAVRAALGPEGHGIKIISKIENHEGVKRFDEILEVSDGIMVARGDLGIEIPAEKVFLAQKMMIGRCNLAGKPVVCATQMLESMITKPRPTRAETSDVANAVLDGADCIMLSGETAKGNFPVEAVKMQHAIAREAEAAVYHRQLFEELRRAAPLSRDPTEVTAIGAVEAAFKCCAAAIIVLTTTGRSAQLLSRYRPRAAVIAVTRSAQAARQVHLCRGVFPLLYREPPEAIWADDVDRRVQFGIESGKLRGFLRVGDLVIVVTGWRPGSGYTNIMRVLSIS
Source text: (§1) Genomic DNA of MRSA strain Sanger 252 extracted using DNeasy Tissue Kit™ (Qiagen™) was used as a template to generate the His-tagged MRSA PK. Human cDNA from MCF-7 breast cancer cell line (courtesy of Dr. J Wong, BC Cancer Research Center (Vancouver, Canada) was used as a template to generate the full-length human M2 PK enzyme. The following primer sets were used creating appropriate restriction sites (NdeI and XhoI sites underlined): For cloning of MRSA PK: M27F 5′-[…]-3′ and M27R 5′-[…]-3′, for cloning of human M2 PK isoform: hM2F 5′-[…]-3′ and hM2R 5′-[…]-3′. The resulting PCR fragments for each construct were cloned into the NdeI and XhoI unique sites of the bacterial expression vector pET-28a (+) (Novagen™). […] The sequence and the correct reading frame of all constructs were verified by sequencing. Human M1, R and L PK constructs in pET-28-a(+) vectors (courtesy of Dr. L. Cantley, Harvard Medical, School (Boston, USA)) were used to generate relevant recombinant His-tagged human PK isoforms.
(§2) MRSA and human constructs in pET-28a(+) were used to express relevant recombinant PK proteins in E. coli BL-21 (DE3). The proteins were expressed and purified using Ni-NTA agarose (Qiagen™) according to the manufacturer's protocol. Briefly, cells were grown to an absorbance of 0.4-0.5 at 600 nm in 2×YT medium, then induced with 0.1 mM IPTG for 3 h at 20° C. Cells were lysed by sonication on ice (3×10-s bursts with a 30-s recovery between bursts) in lysis buffer (0.2 mg/ml lysozyme, 50 mM Tris pH 7.5, 10 mM MgCl2, 200 mM NaCl, 100 mM KCl, 10% glycerol, 10 mM imidazole, 0.5% NP-40 and 1 mM DTT containing Complete™ protease inhibitor). Cell lysates were cleared by centrifugation (18,000×g in a Beckman™ JA-20 rotor) for 20 min at 4° C. and PK isoforms were purified by batch binding to Ni-NTA resin. The resins were then packed in columns (1×2 cm) and washed with 400 column volumes lysis buffer containing 30 mM imidazole. His-tagged PK isoforms were eluted with the same buffer containing 300 mM imidazole. The proteins were dialyzed overnight at 4° C. against 2000 volumes of ice-cold 30 mM Tris pH 7.5, 25 mM KCl, 5 mM MgCl2, 10% glycerol and 1 mM DTT to remove imidazole. All purification steps were done at 4° C.; enzymes were flash-frozen and stored at −70° C. Enzymatic activity of frozen protein preparations was stable for at least 10 months and up to 5 freeze/thaw cycles. Purity and physical integrity of proteins were assessed using SDS-polyacrylamide gel electrophoresis (SDS-PAGE) followed by coomassie blue staining. Protein concentration was estimated by Bradford assay (Bio-Rad Protein Assay™) using bovine serum albumin as a standard.
(§3) Candidate MRSA PK inhibitors were assayed for their ability to inhibit enzymatic activities of MRSA and human PKs. PK activity was determined using a continuous assay coupled to lactate dehydrogenase (LDH) in which the change in absorbance at 340 nm owing to oxidation of NADH was measured using a Benchmark Plus™ microplate spectrophotometer (Bio-Rad Laboratories, Hercules, Calif.). […] Reactions were initiated by the addition of 15 nM of one of the PK enzymes. PK activity proportional to the rate of change at 340 nm was expressed as specific activity (μmol/min/mg), which is defined as the amount of PK that catalyzes the formation of one micromole of either product per minute. Inhibitors were dissolved in DMSO with the final concentration of the solvent never exceeding 1% of the assay volume. IC50 values were calculated by curve fitting on a four-parameter dose-response model with variable slope using Graphpad Prism 5.0™ (GraphPad™ Software Inc., La Jolla, Calif.). In all studies, less than 10% of total PEP was exhausted during the reaction. Reactions were performed at 30° C. for up to 5 min. All values determined represent at least two measurements, in triplicate (Tables 1-6) or duplicate unless mentioned otherwise. […]

[2] = target: T2, Human L PK (Homo sapiens, UniProt P30613); test: Human PK selectivity, LDH-coupled enzyme assay; assay type: biochemical; details: read-out: % Inhibition Human L
T2 construct: His tag; made in house; host or cells: E. coli BL-21 (DE3); construct a gift of Dr. L. Cantley
T2 sequence (P30613 1-543 isoform P30613-2): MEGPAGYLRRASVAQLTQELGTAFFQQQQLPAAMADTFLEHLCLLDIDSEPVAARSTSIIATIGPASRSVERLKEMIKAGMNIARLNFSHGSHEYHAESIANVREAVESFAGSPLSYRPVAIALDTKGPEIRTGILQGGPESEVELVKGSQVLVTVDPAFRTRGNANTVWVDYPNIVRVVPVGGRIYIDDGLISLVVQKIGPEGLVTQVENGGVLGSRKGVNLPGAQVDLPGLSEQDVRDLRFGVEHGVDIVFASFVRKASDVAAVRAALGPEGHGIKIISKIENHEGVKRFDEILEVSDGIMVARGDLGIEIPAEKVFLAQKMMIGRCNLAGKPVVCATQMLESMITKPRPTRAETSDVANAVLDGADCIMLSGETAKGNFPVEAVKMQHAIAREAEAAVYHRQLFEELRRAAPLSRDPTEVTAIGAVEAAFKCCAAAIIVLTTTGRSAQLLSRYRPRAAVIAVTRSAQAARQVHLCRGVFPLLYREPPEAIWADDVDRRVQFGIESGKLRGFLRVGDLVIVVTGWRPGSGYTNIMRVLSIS
Source text: as §1, §2, §3

[3] = target: T3, Human M2 PK (Homo sapiens, UniProt P14618); test: Human PK selectivity, LDH-coupled enzyme assay; assay type: biochemical; details: read-out: % Inhibition Human M2
T3 construct: used as a template to generate the full-length human M2 PK enzyme; His tag (pET-28a(+) vector) (N); made in house; host or cells: E. coli BL-21 (DE3)
T3 sequence (P14618 whole entry): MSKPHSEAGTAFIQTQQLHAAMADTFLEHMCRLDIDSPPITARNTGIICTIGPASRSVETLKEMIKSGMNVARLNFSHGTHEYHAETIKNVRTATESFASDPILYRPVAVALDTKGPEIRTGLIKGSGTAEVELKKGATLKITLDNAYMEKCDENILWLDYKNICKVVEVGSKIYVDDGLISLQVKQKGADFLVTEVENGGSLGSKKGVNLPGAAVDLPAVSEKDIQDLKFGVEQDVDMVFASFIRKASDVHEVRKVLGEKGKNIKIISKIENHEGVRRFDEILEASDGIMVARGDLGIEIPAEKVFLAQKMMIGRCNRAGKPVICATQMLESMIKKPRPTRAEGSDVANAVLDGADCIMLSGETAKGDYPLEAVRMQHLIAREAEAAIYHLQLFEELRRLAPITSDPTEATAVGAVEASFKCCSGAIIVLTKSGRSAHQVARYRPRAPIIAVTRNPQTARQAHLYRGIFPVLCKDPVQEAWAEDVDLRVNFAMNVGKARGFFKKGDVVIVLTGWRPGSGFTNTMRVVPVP
Source text: as §1, §2, §3

[4] = target: T4, Human M1 PK (Homo sapiens, UniProt P14618); test: Human PK selectivity, LDH-coupled enzyme assay; assay type: biochemical; details: read-out: % Inhibition Human M1
T4 construct: His tag; made in house; host or cells: E. coli BL-21 (DE3); construct a gift of Dr. L. Cantley
T4 sequence (P14618 1-531 isoform P14618-2): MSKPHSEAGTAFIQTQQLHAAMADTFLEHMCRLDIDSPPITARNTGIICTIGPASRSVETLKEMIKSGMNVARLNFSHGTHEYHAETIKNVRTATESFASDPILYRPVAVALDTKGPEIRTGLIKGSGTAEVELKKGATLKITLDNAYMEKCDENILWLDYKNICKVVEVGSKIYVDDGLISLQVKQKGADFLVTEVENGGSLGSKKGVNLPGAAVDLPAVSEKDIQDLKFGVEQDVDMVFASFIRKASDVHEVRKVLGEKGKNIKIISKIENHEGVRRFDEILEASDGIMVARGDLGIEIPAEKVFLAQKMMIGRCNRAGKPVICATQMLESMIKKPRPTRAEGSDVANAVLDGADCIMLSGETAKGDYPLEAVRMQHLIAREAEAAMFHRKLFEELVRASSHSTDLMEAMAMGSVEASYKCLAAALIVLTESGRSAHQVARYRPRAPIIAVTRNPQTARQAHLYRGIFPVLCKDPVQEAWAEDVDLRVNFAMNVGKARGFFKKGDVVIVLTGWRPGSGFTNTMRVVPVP
Source text: as §1, §2, §3

[5] = test system: S. aureus ATCC 29213; test: In vitro susceptibility, broth microdilution MIC; assay type: cell-based, Staphylococcus aureus; details: Staphylococcus aureus
How it was run: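 The MIC against S. aureus 29213 was determined by CLSI 2-fold serial broth microdilution in Mueller Hinton broth. Plates were incubated for 18–24 h at 37 °C and read at OD600 with background subtracted. The MIC was the lowest concentration giving complete growth inhibition versus compound-free wells.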

[6] = test system: E. coli (DAS 1-IMP); test: microbe, parasite or virus in culture; assay type: cell-based, Escherichia coli; details: Escherichia coli, read-out: MIC (μg/mL) C, E. coli (DAS 1-IMP)
Experimental: The antimicrobial activities of PK inhibitor candidates were determined using the 96-well microtiter standard 2-fold serial broth microdilution method as described by CLSI (formerly NCCLS) with the various gram-positive and gram-negative bacteria species mentioned above. Bacteria from a single colony were grown, overnight in either BHI Broth (VRE), mueller hinton broth (S. aureus 29213; MRSA USA400) or L-broth (E. coli, P. aeruginosa, S. typhimuriu, K. Pneumonia and A. baumannii). […] Culture plates were incubated for 18-24 h at 37° C., and optical density at 600 nm (OD600) was measured using a Benchmark Plus™ microplate spectrophotometer (Bio-Rad™). The absorbance control values for the series containing CAMHB and inhibitor were subtracted as background from the corresponding infected wells. The MIC was defined as the lowest concentration of test compound leading to complete inhibition of cell growth in relationship to compound-free control wells as determined by optical density. […] All assays were run in triplicate (Tables 1-6) or duplicate. Experiments were replicated at least twice to verify reproducibility using the above conditions.
The antimicrobial activity of selected compounds against the gram negative bacteria Klebsiella pneumoniae, Acinetobacter baumannii, E. coli, Pseudomonas aeruginosa and Salmonella typhimurium, as well as additional gram positive bacteria, including drug-resistant strains, was tested according to the procedures provided under “General Methodologies” above.

[7] = ATCC29213, Tables 1-6 and text, minimum concentration to give >98% inhibition of growth, read-out: MIC

Compound	inhibition at 10 µM ([1]; at 10 μM) [%]	inhibition at 10 µM ([2]; at 10 μM) [%]	inhibition at 10 µM ([3]; at 10 μM) [%]	inhibition at 10 µM ([4]; at 10 μM) [%]	MIC [5, 7] [µg/mL]	inhibition at 10 µM [1] [%]	inhibition at 10 µM [2] [%]	inhibition at 10 µM [3] [%]	inhibition at 10 µM [4] [%]	MIC ([5]; ATCC29213) [µg/mL]	melting point [°C]	MIC [6] [µg/mL]	MIC ([5]; ATCC29213, S. aureus (ATCC29213), Table 9, read-out: MIC (μg/mL) H) [µg/mL]
Brc1ccc2c(c1)cc(-c1cc3ccc(Br)cc3[nH]1)n2CCN1CCOCC1 [Compound 20b, 4-(2-(5,6′-dibromo-1H,1′H-[2,2′-biindol]-1-yl)ethyl)morpholine]	50.7	32.1	3.5	13.1	> 64								
Brc1cc2cc(-c3cc4cc(Br)c(Br)cc4[nH]3)[nH]c2cc1Br [Compound 10l, 5,5′,6,6′-Tetrabromo-1H,1′H-2,2′-biindole]						20.7	8.2	2.3	11.1	> 64			
Brc1ccc2cc(CCc3cc4ccc(Br)cc4[nH]3)[nH]c2c1 [Compound 28a, 1,2-bis(6-bromo-1H-indol-2-yl)ethane]	24.1	9.7	1.3	9.9	> 64								
Brc1ccc2cc(-c3cc4ccc(Br)cc4[nH]3)[nH]c2c1 [Compound 10b, 6,6′-Dibromo-1H,1′H-2,2′-biindole]	18.3	7.9	0.1	10.3	16 (≈ 41 µM)						266 to 267		
OCCn1c(-c2cc3ccc(Br)cc3[nH]2)cc2cc(Br)ccc21 [Compound 17, 2-(5,6′-Dibromo-1H, 1′H-[2,2′-biindol]-1-yl)ethanol]	25.2	6.8	12.1	14.6	2 (≈ 4.61 µM)								
Cn1c(-c2cc3ccc(Br)cc3[nH]2)cc2cc(Br)ccc21 [Compound 12a, 5,6′-Dibromo-1-methyl-1H,1′H-2,2′-biindole]	2.7	2.8	9.1	13.9	> 64						180 to 182		
Brc1ccc2cc(-c3nc4ccccc4s3)[nH]c2c1 [Compound 22a, 2-(6-Bromo-1H-indol-2-yl)benzo[d]thiazole]	21.6	7.8	3	12.4	> 64								
Brc1ccc2[nH]c(-c3cc4ccc(Br)cc4[nH]3)cc2c1 [Compound 10c, 5,6-Bibromo-1H,1′H-2,2′-biiindole]	13.6	6.1	8.7	6.9	0.3 (≈ 0.769 µM)						270 to 272		
O=C(c1c(-c2cc3cc(Cl)ccc3[nH]2)[nH]c2cc(Br)ccc12)C(F)(F)F [Compound 178, 1-(6-bromo-5′-chloro-1H,1′H-[2,2′-biindol]-3-yl)-2,2,2-trifluoroethan-1-one]												> 64	1 (≈ 2.26 µM)
Brc1ccc2[nH]c(-c3cc4cc(Br)ccc4[nH]3)cc2c1 [Compound 10i, 5,5′-Bibromo-1H,1′H-2,2′-biindole]	24.4	9.8	0.5	12.3	> 64						304 to 306		
COc1cc(-c2cc3ccccc3[nH]2)ccc1-c1cc2ccc(Br)cc2[nH]1 [Compound 33e, 2-(4-(1H-indol-2-yl)-2-methoxyphenyl)-6-bromo-1H-indole]	13.5	4.3	14.6	7.3	> 64								
CN1CCN(CCn2c(-c3cc4ccc(Br)cc4[nH]3)cc3cc(Br)ccc32)CC1 [Compound 20a, 5,6′-Dibromo-1-(2-(4-methylpiperazin-1-yl)ethyl)-1H,1′H-2,2′-biindole]	26.1	16.8	1.7	3.2	4 (≈ 7.75 µM)						140		
Brc1ccc2cc(-c3cc4cc(Br)c(Br)cc4[nH]3)[nH]c2c1 [Compound 10k, 5,6,6′-Tribromo-1H,1′H-2,2′-biindole]	41	26.8	20.8	16.1	0.5 (≈ 1.07 µM)								
Brc1ccc2cc(/C=C/c3cc4ccccc4[nH]3)[nH]c2c1 [Compound 27a, (E)-2-(2-(1H-indol-2-yl)vinyl)-6-bromo-1H-indole]	23.8	12.9	-0.9	16.1	> 64								
Brc1ccc2[nH]c(C#Cc3cc4ccc(Br)cc4[nH]3)cc2c1 [Compound 25c, 6-Bromo-2-((5-bromo-1H-indol-2-yl)ethynyl)-1H-indole]	27.8	14	8.7	19.5	16 (≈ 38.6 µM)						236 to 237		
Brc1ccc2cc(-c3cc4ccccc4o3)[nH]c2c1 [Compound 22b, 2-(Benzofuran-2-yl)-6-bromo-1H-indole]	-5.5	-6	0.4	5.3	> 64						196 to 198		
